Data taken from US20250154169A1, “COMPOUNDS AND METHODS FOR MODULATING SPLICING” (REMIX THERAPEUTICS INC., priority 2021, published 2025).
Like-named read-outs stand apart in the source and are kept apart here.

How the values were obtained:
Assay type in all cases: cell-based, human
HTT mRNA [1] = experiment: Splicing RT-qPCR gene panel, HTT canonical junction (CJ) mRNA; settings: Homo sapiens, Tables 4A/4B, read-out: HTT (IC50, decrease in CJ mRNA, gene panel)
Procedure, shortened: (§1)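 A673/K562, 24 h cpd, 11-pt 3-fold from 10 uM, DMSO ≤0.25%. Lysis, direct RT-qPCR of CJ isoform, ≥duplicate. GAPDH/GUSB/PPIA norm, ΔΔCt vs DMSO → RQ → % response.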

MYB mRNA = experiment: Splicing RT-qPCR assay, MYB canonical (CJ) and alternative (AJ) junction mRNA; settings: Homo sapiens; for AC50: read-out: MYB AJ (AC50, increase in alternative junction mRNA)
Procedure, shortened: (§2)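 One-step RT-qPCR on cell lysates, CJ and AJ isoforms quantified; housekeeping normalization GAPDH/GUSB (K562) or PPIA (A673). Cells: A673 in DMEM/10% FBS or K562 in IMDM/10% FBS. Compounds 11-pt 3-fold, top 10 uM, 24 h, 37 °C, 5% CO2.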

SMN2 mRNA = experiment: Splicing RT-qPCR gene panel, SMN2 canonical junction (CJ) mRNA; settings: Homo sapiens, Tables 4A/4B, read-out: SMN2 (IC50, decrease in CJ mRNA, gene panel)
Procedure, shortened: as §1

HTT mRNA [2] = experiment: Splicing RT-qPCR assay, HTT canonical (CJ) and alternative (AJ) junction mRNA; settings: Homo sapiens, A673 or K562 cells, 24 hours compound treatment; for IC50: 24 h, read-out: HTT CJ (IC50, decrease in canonical junction mRNA); for AC50: read-out: HTT AJ (AC50, increase in alternative junction mRNA)
Procedure, shortened: as §2

Target C mRNA = experiment: Splicing RT-qPCR gene panel, Target C canonical junction (CJ) mRNA; settings: Homo sapiens, Tables 4A/4B, read-out: Target C (IC50, decrease in CJ mRNA, gene panel)
Procedure, shortened: as §1

[3] = 24 h, A673 or K562 cells, 24 hours compound treatment, RT-qPCR
[4] = 24 h, A673 or K562 cells, 24 hours compound treatment, RT-qPCR, read-out: MYB CJ (IC50, decrease in canonical junction mRNA)
[5] = Tables 4A/4B, canonical junction qPCR panel, read-out: MYB (IC50, decrease in CJ mRNA, gene panel)

IC50 (HTT mRNA [1]) [nM]	IC50 (MYB mRNA; [4]) [nM]	IC50 (MYB mRNA; [5]) [nM]	IC50 (SMN2 mRNA) [nM]	IC50 (HTT mRNA [2]) [nM]	IC50 (Target C mRNA) [nM]	SMILES	AC50 (MYB mRNA; [3]) [nM]	AC50 (HTT mRNA [2]) [nM]
> 10000	100 to 1000	100 to 1000	< 100	> 10000	> 10000	CCn1cc2c(N3CC[C@@H](NC4CC4)C3)ccc(C(=O)Nc3cc(F)c4nc(C)cn4c3)c2n1 [Compound 409, (R)-4-(3-(cyclopropylamino)pyrrolidin-1-yl)-2-ethyl-N-(8-fluoro-2-methylimidazo[1,2-a]pyridin-6-yl)-2H-indazole-7-carboxamide]	< 100	> 10000
> 10000	100 to 1000	100 to 1000	< 100	> 10000	> 10000	CCn1cc2c(N3CC[C@H](NC4CC4)C3)ccc(C(=O)Nc3cc(F)c4nc(C)cn4c3)c2n1 [Compound 410, (S)-4-(3-(cyclopropylamino)pyrrolidin-1-yl)-2-ethyl-N-(8-fluoro-2-methylimidazo[1,2-a]pyridin-6-yl)-2H-indazole-7-carboxamide]	1000 to 10000	> 10000
1000 to 10000	< 100	< 100	< 100	1000 to 10000	> 10000	Cc1cn2cc(NC(=O)c3ccc(N4CCNCC4)c4cn(CC#N)nc34)cc(F)c2n1 [Compound 413, 2-(cyanomethyl)-N-{8-fluoro-2-methylimidazo[1,2-a]pyridin-6-yl}-4-(piperazin-1-yl) indazole-7-carboxamide]	< 100	1000 to 10000
> 10000	1000 to 10000	1000 to 10000	1000 to 10000	> 10000	> 10000	Cc1cn2cc(NC(=O)c3ccc(N4CCNCC4)c4cn(CC56CC(O)(C5)C6)nc34)cc(F)c2n1 [Compound 414, N-{8-fluoro-2-methylimidazo[1,2-a]pyridin-6-yl}-2-({3-hydroxybicyclo[1.1.1]pentan-1-yl}methyl)-4-(piperazin-1-yl) indazole-7-carboxamide 2,2,2-trifluoroacetate]	1000 to 10000	> 10000
100 to 1000	100 to 1000	100 to 1000	100 to 1000	100 to 1000	100 to 1000	CCn1cc2c(N3CCN4C(=O)OCC4C3)ccc(C(=O)Nc3cc(F)c4nc(C)cn4c3)c2n1 (centres unmarked) [Compound 415, 2-ethyl-N-{8-fluoro-2-methylimidazo[1,2-a]pyridin-6-yl}-4-{3-oxo-tetrahydro-1H-[1,3]oxazolo[3,4-a]pyrazin-7-yl}indazole-7-carboxamide]	100 to 1000	100 to 1000
> 10000	> 10000	> 10000	1000 to 10000	> 10000	> 10000	C=C(C)n1ncc2c(N3CCNCC3)ccc(C(=O)Nc3cc(F)c4nc(C)cn4c3)c21 [Compound 416, N-(8-fluoro-2-methylimidazo[1,2-a]pyridin-6-yl)-4-(piperazin-1-yl)-1-(prop-1-en-2-yl)-1H-indazole-7-carboxamide]	> 10000	> 10000
> 10000	< 100	< 100	< 100	1000 to 10000	> 10000	CNC1CCN(c2ccc(C(=O)Nc3cn4cc(C)nc4c(OC)n3)c3nn(C)cc23)C1 (centres unmarked) [Compound 417]	< 100	> 10000
> 10000	100 to 1000	100 to 1000	< 100	> 10000	> 10000	CNC1CCN(c2ccc(C(=O)Nc3cn4cc(C)nc4c(OC)n3)c3nn(CCOC)cc23)C1 (centres unmarked) [Compound 418, N-{8-methoxy-2-methylimidazo[1,2-a]pyrazin-6-yl}-2-(2-methoxyethyl)-4-[3-(methylamino)pyrrolidin-1-yl]indazole-7-carboxamide]	1000 to 10000	> 10000
> 10000	> 10000	> 10000	> 10000	> 10000	> 10000	CNC1CCN(c2ccc(C(=O)Nc3cn4cc(C)nc4c(N(C)C)n3)c3nn(C)cc23)C1 (centres unmarked) [Compound 419, N-[8-(dimethylamino)-2-methylimidazo[1,2-a]pyrazin-6-yl]-2-methyl-4-[3-(methylamino)pyrrolidin-1-yl]indazole-7-carboxamide]	> 10000	> 10000
> 10000	100 to 1000	100 to 1000	< 100	> 10000	> 10000	CCOc1nc(NC(=O)c2ccc(N3CCC(NC)C3)c3cn(C)nc23)cn2cc(C)nc12 (centres unmarked) [Compound 420, N-{8-ethoxy-2-methylimidazo[1,2-a]pyrazin-6-yl}-2-methyl-4-[3-(methylamino)pyrrolidin-1-yl]indazole-7-carboxamide]	100 to 1000	> 10000
> 10000	> 10000	> 10000	> 10000	> 10000	> 10000	Cc1cc2nc(NC(=O)c3ccc(N4CCNCC4)c4cn(C)nc34)cc(C)n2n1 [Compound 421, N-{2,7-dimethylpyrazolo[1,5-a]pyrimidin-5-yl}-2-methyl-4-(piperazin-1-yl) indazole-7-carboxamide]	> 10000	> 10000
100 to 1000	< 100	< 100	< 100	100 to 1000	1000 to 10000	CCn1cc2c(N3CCC(C)(NC)CC3)ccc(C(=O)Nc3cc(F)c4nc(C)cn4c3)c2n1 [Compound 423, 2-ethyl-N-{8-fluoro-2-methylimidazo[1,2-a]pyridin-6-yl}-4-[4-methyl-4-(methylamino)piperidin-1-yl]indazole-7-carboxamide]	< 100	100 to 1000
> 10000	> 10000	> 10000	1000 to 10000	> 10000	> 10000	COC1CC(n2cc3c(N4CCNCC4)ccc(C(=O)Nc4cc(F)c5nc(C)cn5c4)c3n2)C1 (centres unmarked) [Compound 424]	> 10000	> 10000
> 10000	> 10000	> 10000	> 10000	> 10000	> 10000	CN[C@@H]1CCN(c2ccc(C(=O)Nc3cn4cc(C)nc4c(N(C)C)n3)c3nn(C)cc23)C1 [Compound 425]	> 10000	> 10000
> 10000	> 10000	> 10000	> 10000	> 10000	> 10000	CN[C@H]1CCN(c2ccc(C(=O)Nc3cn4cc(C)nc4c(N(C)C)n3)c3nn(C)cc23)C1 [Compound 426]	> 10000	> 10000
100 to 1000	100 to 1000	100 to 1000	< 100	100 to 1000	1000 to 10000	Cc1cn2cc(NC(=O)c3ccc(N4CCNCC4)c4nn(C)nc34)cc(F)c2n1 [Compound 427, N-{8-fluoro-2-methylimidazo[1,2-a]pyridin-6-yl}-2-methyl-7-(piperazin-1-yl)-1,2,3-benzotriazole-4-carboxamide]	100 to 1000	100 to 1000
< 100	< 100	< 100	< 100	< 100	100 to 1000	COc1c(NC(=O)c2ccc(N3CCNCC3)c3oc(C)nc23)cn2cc(C)nc2c1F [Compound 428, N-{8-fluoro-7-methoxy-2-methylimidazo[1,2-a]pyridin-6-yl}-2-methyl-7-(piperazin-1-yl)-1,3-benzoxazole-4-carboxamide]	< 100	< 100
1000 to 10000	100 to 1000	100 to 1000	< 100	1000 to 10000	> 10000	CCn1cc2c(N3CCN[C@@H](CO)C3)ccc(C(=O)Nc3cc(F)c4nc(C)cn4c3)c2n1 [Compound 429, (R)-2-ethyl-N-(8-fluoro-2-methylimidazo[1,2-a]pyridin-6-yl)-4-(3-(hydroxymethyl)piperazin-1-yl)-2H-indazole-7-carboxamide]	100 to 1000	1000 to 10000
1000 to 10000	< 100	< 100	< 100	1000 to 10000	> 10000	CCn1cc2c(N3CCN[C@H](CO)C3)ccc(C(=O)Nc3cc(F)c4nc(C)cn4c3)c2n1 [Compound 430, (S)-2-ethyl-N-(8-fluoro-2-methylimidazo[1,2-a]pyridin-6-yl)-4-(3-(hydroxymethyl)piperazin-1-yl)-2H-indazole-7-carboxamide]	< 100	1000 to 10000
